Laboratory results reported in patent US20200071310A1, “N-ARYL PYRAZOLES AS NRF2 REGULATORS” (GLAXOSMITHKLINE INTELLECTUAL PROPERTY DEVELOPMENT LIMITED, priority 2016, published 2020).

Legend:
[1] = biological target: T1, Keap1 (321-609) Kelch domain / TAMRA-labeled NRF2 peptide (ETGE motif) (Homo sapiens, UniProt Q14145); test: NRF2-Keap1 FP Assay; type: binding; conditions: Keap1 (321-609) 20 nM, Tamra labeled peptide 8 nM
T1 construct: the Kelch domain (321-609) of Keap1 is used
Summary of the method: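 Fluorescence polarization competition: 20 nM Keap1 Kelch (321-609) with 8 nM TAMRA-ETGE 16mer peptide (final) in Tris pH 8.0 buffer with DTT, CHAPS, BSA; 3-fold compound series, 1 h at room temperature. mP normalized to protein+peptide (0%) and peptide-only (100%) controls; pIC50 from four-parameter fit.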

[2] = tested on: NQO1 specific enzyme activity in BEAS-2B cells; test: BEAS-2B NQO1 MTT Assay; type: cell-based; conditions: Homo sapiens; NQO1 specific activity induction, BEAS-2B cells, 48 hours; read-out: EC50
Summary of the method: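 BEAS-2B cells plated overnight, treated with compound for 48 h at 37° C, then lysed; NQO1 activity measured kinetically by MTT cocktail at 570 nm over 30 min, with lysate aliquot for Cell Titer Glo. pEC50 from 3-parameter fit of ΔOD/min versus log concentration.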

T1 sequence (Q14145 321-609): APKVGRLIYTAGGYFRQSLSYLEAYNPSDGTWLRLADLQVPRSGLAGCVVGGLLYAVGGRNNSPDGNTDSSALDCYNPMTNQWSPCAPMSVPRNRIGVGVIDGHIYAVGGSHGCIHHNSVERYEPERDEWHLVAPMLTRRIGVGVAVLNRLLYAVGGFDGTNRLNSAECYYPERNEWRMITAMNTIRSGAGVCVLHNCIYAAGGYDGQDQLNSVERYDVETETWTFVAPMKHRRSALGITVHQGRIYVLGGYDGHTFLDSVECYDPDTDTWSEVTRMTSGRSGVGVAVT

C[C@@H]1Cc2cc(C(F)(F)F)ccc2S(=O)(=O)N(Cc2cccc(-n3ncc(C(=O)O)c3[C@@H]3C[C@H]3c3cnn(C)c3)c2)C1 [Example 33, 1-(3-(((R)-4-methyl-1,1-dioxido-7-(trifluoromethyl)-4,5-dihydro-benzo[f][1,2]thiazepin-2(3H)-yl)methyl)phenyl)-5-(trans-2-(1-methyl-1H-pyrazol-4-yl)cyclopropyl)-1H-pyrazole-4-carboxylic acid]
EC50 [1]: 1 to 10 µM | EC50 [2]: 1 to 10 µM
